Each molecule was assayed against T1, ASIC1a (Homo sapiens, UniProt P78348) (assay: Two-electrode voltage clamp of acid-induced currents in Xenopus laevis oocytes). Conditions: 50 μM, Xenopus oocytes; read-out: % inh. at 50 μM (Xo).
T1 sequence (P78348 1-528): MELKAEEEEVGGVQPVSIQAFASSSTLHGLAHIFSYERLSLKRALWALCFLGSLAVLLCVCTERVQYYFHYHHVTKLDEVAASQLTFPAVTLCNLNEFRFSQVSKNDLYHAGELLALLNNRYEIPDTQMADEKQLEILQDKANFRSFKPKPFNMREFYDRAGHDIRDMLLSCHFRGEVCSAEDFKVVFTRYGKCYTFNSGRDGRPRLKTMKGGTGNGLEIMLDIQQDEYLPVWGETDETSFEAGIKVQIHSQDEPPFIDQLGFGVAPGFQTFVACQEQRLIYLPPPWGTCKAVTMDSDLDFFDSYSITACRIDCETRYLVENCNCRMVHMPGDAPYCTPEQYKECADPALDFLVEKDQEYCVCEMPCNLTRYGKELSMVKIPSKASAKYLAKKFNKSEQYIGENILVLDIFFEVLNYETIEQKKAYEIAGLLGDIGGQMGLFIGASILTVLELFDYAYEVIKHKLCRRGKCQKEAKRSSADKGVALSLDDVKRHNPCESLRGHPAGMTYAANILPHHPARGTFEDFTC
Format: cell-based
Parameters: expressed in transfected cells; host or cells: Xenopus laevis oocytes, nuclear microinjection of an expression vector such as pCDNA3
Description: Screening and Bioanalysis of ASIC Antagonists in Xenopus laevis oocytes
This example describes the in vitro assessment of the activity of the compounds of the present invention.
Two-electrode voltage clamp electrophysiological assays in Xenopus laevis oocytes expressing gated ion channels are performed as follows:
Oocytes are surgically removed from adult Xenopus laevis and treated for 2 h at room temperature with 1 mg/ml type I collagenase (Sigma) in Barth's solution under mild agitation. Selected oocytes at stage IV-V are defolliculated manually before nuclear microinjection of 2.5-5 ng of a suitable expression vector, such as pCDNA3, comprising the nucleotide sequence encoding a gated ion channel subunit protein. In such an experiment, the oocytes express homomultimeric proton-gated ion channels on their surface. In an alternate experiment, one, two, three or more vectors comprising the coding sequences for distinct gated ion channel subunits are co-injected in the oocyte nuclei. In the latter case, oocytes express heteromultimeric proton-gated ion channels. For example, ASIC2a and/or ASIC3 subunits in pcDNA3 vector are co-injected at a 1:1 cDNA ratio. After 2-4 days of expression at 19° C. in Barth's solution containing […] gentamicin and 1.8 mM CaCl2, gated ion channels are activated by applying an acidic solution (pH<7) and currents are recorded in a two electrode voltage-clamp configuration, using an OC-725B amplifier (Warner Instruments). Currents are acquired and digitized at 500 Hz on an Apple Imac G3 computer with an A/D NB-MIO-16XL interface (National Instruments) and recorded traces are post-filtered at 100 Hz in Axograph (Axon Instruments) (Neher, E. and Sakmann, B. (1976) Nature 260:799-802). Once impaled with the microelectrodes, oocytes are continuously superfused at 10-12 ml/min with a modified Ringer's solution containing 97 mM NaCl, 2 mM KCl, 1.8 mM CaCl2, and 10 mM HEPES brought to pH 7.4 with NaOH (Control Ringer). Test Ringer solution is prepared by replacing HEPES with MES and adjusting the pH to the desired acidic value. Compounds of the present invention are prepared in both the Control and Test Ringer solutions and applied to oocytes at room temperature through a computer-controlled switching valve system. Osmolarity of all solutions is adjusted to 235 mOsm with choline chloride. Similarly, recordings can also be acquired in an automated multichannel oocytes system as the OpusExpress™ (Molecular Devices, Sunnyvale, USA).
FIGS. 1A and 2A illustrate the inhibitory effects of Compounds 12 and 44 on acid-induced activation of recombinant homomeric hASIC1a channels. FIGS. 1A and 2A show the dose-dependent inhibition of the acid-induced hASIC1a currents recorded from Xenopus laevis oocytes using the two-electrode voltage clamp method (as described in this example) in the absence or presence of increasing concentration of the compounds.

Structure (SMILES)	inhibition at 50 µM [%]
Cc1cc2c(N)c(-c3ccccc3)cc(C#N)c2cn1 [Compound 32]	> 30
CCN1CCc2c(-c3ccccc3)cc(C#N)c(-c3cccnc3)c2C1 [Compound 60]	45 to 55
CCN1CCc2c(-c3ccccc3)cc(C#N)c(NC(=O)C(=O)OC)c2C1 [Compound 57]	< 20
CCN1CCc2c(-c3ccccc3)cc(/C(N)=N/O)c(N)c2C1 [Compound 33]	> 30
CCN1CCc2c(-c3ccncc3)cc(C#N)c(N)c2C1 [Compound 55]	< 20
CCN1CCc2c(-c3cc(F)ccc3OC)ccc(NC(=O)NC(=O)N3C(=O)CN(c4ccc(-c5cc(F)ccc5OC)c5c4CN(CC)CC5)C3=O)c2C1 [Compound 26]	> 30
CCN1CCc2c(-c3cc(F)ccc3OC)ccc(NC=O)c2C1 [Compound 27]	< 20
CCN1CCc2c(-c3ccccc3)cc(Br)c(N(C)C)c2C1 [Compound 49]	20 to 30
CCN1CCc2c(-c3ccccc3)cc(C#N)c([N+](=O)[O-])c2C1 [Compound 51]	20 to 30
CCN1CCc2c(-c3cc(C)ccc3C)cc(C#N)c(N)c2C1 [Compound 47]	> 40
CCN1CCc2c(-c3ccccc3)cc(-c3cccc(C)n3)c(N)c2C1 [Compound 40]	> 30
CCN1CCc2c(-c3ccccc3)cc(C#N)c(NC(C)=O)c2C1 [Compound 8, N-(7-Cyano-2-ethyl-5-phenyl-1,2,3,4-tetrahydro-isoquinolin-8-yl)-acetamide]	20 to 30
CCN1CCc2c(-c3ccccc3)cc(Br)c(N)c2C1 [Compound 46]	> 40
CCN1CCc2c(-c3ccccc3)cc(C#N)c(-n3cccc3)c2C1 [Compound 59]	> 50
CCN1CCc2c(-c3ccccc3)cc(C#N)c(N(S(C)(=O)=O)S(C)(=O)=O)c2C1 [Compound 56]	< 20
CCN1CCc2c(-c3ccccc3)cc(-c3cnccn3)c(N)c2C1 [Compound 37]	> 30
CCN1CCc2c(-c3ccccc3)cc(-c3ccccn3)c(N)c2C1 [Compound 36]	< 20
Cc1cc2c(N)c(C#N)cc(-c3ccccc3)c2cn1 [Compound 31]	> 30
CCN1CCc2c(-c3ccccc3)cc(C#N)c(O)c2C1 [Compound 42]	20 to 30
CCN1CCc2c(-c3ccccc3)cc(C#N)c(-c3cnn(C)c3)c2C1 [Compound 62]	> 30
CCN1CCc2c(-c3ccccc3)cc(C#N)c(Br)c2C1 [Compound 61]	> 30

Structure (SMILES)	inhibition at 50 µM [%]
CC(=O)N1CCc2c(-c3ccccc3)cc(C#N)c(N)c2C1 [Compound 29]	20 to 30
CCN1CCc2c(-c3ccccc3)cc(C#N)c(N3C(=O)CCC3=O)c2C1 [Compound 58]	20 to 30
CCN1CCc2c(-c3cc(F)ccc3OC)ccc(N3C(=O)CNC3=O)c2C1 [Compound 22]	< 20
N#Cc1cc(-c2ccccc2)c2ccncc2c1N [Compound 30]	20 to 30
CCN1CCc2c(-c3ccccc3)cc(-c3ccc(C)nn3)c(N)c2C1 [Compound 39]	20 to 30
CCN1CCc2c(-c3cc(F)ccc3OC)ccc(N3CC(=O)NC3=O)c2C1 [Compound 25]	> 40
CCN1CCc2c(-c3cc(F)ccc3OC)ccc(NCC(=O)OC)c2C1 [Compound 2, [2-Ethyl-5-(5-fluoro-2-methoxy-phenyl)-1,2,3,4-tetrahydro-isoquinolin-8-ylamino]-acetic acid methyl ester]	< 20
CCN1CCc2c(-c3ccccc3)cc(C#N)c(N3CCCC3)c2C1 [Compound 53]	> 40
CCN1CCc2c(-c3ccccc3)cc(C#N)c(NC(=O)CC(=O)OC)c2C1 [Compound 14, N-(7-Cyano-2-ethyl-5-phenyl-1,2,3,4-tetrahydro-isoquinolin-8-yl)-malonamic acid methyl ester]	20 to 30
CCN1CCc2c(cc(N3C(=O)CNC3=O)cc2-c2cc(F)ccc2OC)C1 [Compound 28]	20 to 30
CCOC(=O)CNC(=O)Nc1ccc(-c2cc(F)ccc2OC)c2c1CN(CC)CC2 [Compound 24]	20 to 30
CCN1CCc2c(-c3cc(F)ccc3OC)ccc(NC)c2C1 [Compound 34]	> 40
CCN1CCc2c(-c3cccnc3)cc(C#N)c(N)c2C1 [Compound 54]	> 50
CCN1CCc2c(-c3ccccc3)cc(-c3cnn(C)c3N)c(N)c2C1 [Compound 38]	> 30
COc1ccc(F)cc1-c1cc(-c2noc(=O)[nH]2)c(N)c2c1CCN(C)C2 [Compound 5, 3-[8-Amino-5-(5-fluoro-2-methoxy-phenyl)-2-methyl-1,2,3,4-tetrahydro-isoquinolin-7-yl]-4H-[1,2,4]oxadiazol-5-one]	< 20
CCN1CCc2c(-c3ccccc3)cc(C#N)c(Cl)c2C1 [Compound 52]	25 to 35
CCN1CCc2c(-c3ccccc3)cc(C#N)c(NS(C)(=O)=O)c2C1 [Compound 9, N-(7-Cyano-2-ethyl-5-phenyl-1,2,3,4-tetrahydro-isoquinolin-8-yl)-methanesulfonamide]	15 to 25
CCN1CCc2c(-c3cc(F)ccc3OC)ccc(NC(N)=O)c2C1 [Compound 23]	20 to 30
CCN1CCc2c(-c3ccccc3)ccc(N)c2C1 [Compound 35]	20 to 30
CCN1CCc2c(cc(C#N)cc2-c2ccccc2)C1 [Compound 41]	> 30

— patent publication US20080004282A1, “Compositions and methods for modulating gated ion channels” (PainCeptor Pharma Corporation, priority 2006, published 2008)
